Changes are numbered by the printed parent chain. Like-named read-outs stand apart in the source and are kept apart here. Residues, ends and D or L forms follow the SMILES beside them. No end group written: not given here.

The term Kd denotes the constant that tells how readily two partners part at equilibrium.

Common to all, as to format: binding
The target of one test is T1, BAZ2B PHD (Homo sapiens, UniProt Q9UIF8).
T1 construct: The small PHDs (∼6.5 kDa) of both BAZ2A and BAZ2B; made in house
T1 sequence (Q9UIF8 1931-1981 limits assumed): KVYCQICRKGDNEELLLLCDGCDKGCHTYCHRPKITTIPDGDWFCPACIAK
Kind of test: ITC, H3 peptides titrated into BAZ2B PHD (WT). The following applies: for effect on binding, in words: compared with H3 10-mer WT. Here is the method: (§1) All calorimetric experiments were performed on a MicroCal iTC200 microcalorimeter (GE Healthcare) at 25°C in a buffer containing 20 mM HEPES at a pH of 8, 150 mM NaCl and 0.5 mM Tris(2-carboxyethyl) phosphine. All ITC experiments were carried out titrating peptide solutions (1.5–3 mM) into protein solutions (80–120 µM) loaded in the calorimeter cell, performing one first injection of 0.4 µl followed by 19 injections of 2 µl. The data were analyzed using the MicroCal™ software package subtracting the data from an independent titration of peptide into buffer to account for heat of dilution, and then fitted using a single-binding site model. Protein concentration was determined by measuring absorbance at 280 nm using the following extinction coefficients: BAZ2A PHD ε280 = 6990 M^−1 cm^−1 and BAZ2B PHD ε280 = 8480 M^−1 cm^−1. Lyophilized peptides were weighted and dissolved in an appropriate volume of buffer to obtain the desired concentration.

The target of the next test is T2, BAZ2A PHD (Homo sapiens, UniProt Q9UIF9).
T2 construct: The small PHDs (∼6.5 kDa) of both BAZ2A and BAZ2B; made in house
T2 sequence (Q9UIF9 1676-1726 limits assumed): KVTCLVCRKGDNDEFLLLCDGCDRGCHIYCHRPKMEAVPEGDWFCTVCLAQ
Kind of test: ITC, H3 peptides titrated into BAZ2A PHD (WT). The conditions noted are these: for effect on binding, in words: compared with H3 10-mer WT or the peptide named in the words. Here is the method:
as §1
Background: In ITC the heat of successive injections is recorded.

The next test has as its target T3, BAZ2A PHD D1688N/E1689Q (Homo sapiens, UniProt Q9UIF9, D1688N/E1689Q).
T3 construct: Mutations were introduced into BAZ2A/B PHD fingers by polymerase chain reaction (PCR) amplification of the original construct; made in house
T3 sequence (Q9UIF9 1676-1726 D1688N/E1689Q limits assumed): T2 sequence (Q9UIF9 1676-1726 limits assumed) with D13N, E14Q
Kind of test: ITC, H3 10-mer into BAZ2A PHD D1688N/E1689Q double mutant. The conditions noted are these: ITC 25°C, triplicate, mean ± s.e.m.; N fixed to 1 in fit; SEM. Here is the method: (§2) Mutations were introduced into BAZ2A/B PHD fingers by polymerase chain reaction (PCR) amplification of the original construct using Phusion DNA Polymerase (Thermo Fisher Scientific) and a specific pair of primers for each mutation (Supplementary Table S4). The PCR amplification product was incubated with Dpn I (New England BioLabs) for 1 h at 37°C to digest the parental DNA strands and then used to transform Escherichia coli DH5α cells. Transformed cells were grown on lysogeny broth (LB) agar plates supplemented with 100 µg/ml ampicillin for 16 h at 37°C. Single colonies were picked to inoculate 5 ml of LB plus 100 µg/ml ampicillin and grown for 16 h at 37°C. […]
(§3) All calorimetric experiments were performed on a MicroCal iTC200 microcalorimeter (GE Healthcare) at 25°C in a buffer containing 20 mM HEPES at a pH of 8, 150 mM NaCl and 0.5 mM Tris(2-carboxyethyl) phosphine. […] The data were analyzed using the MicroCal™ software package subtracting the data from an independent titration of peptide into buffer to account for heat of dilution, and then fitted using a single-binding site model. Protein concentration was determined by measuring absorbance at 280 nm using the following extinction coefficients: BAZ2A PHD ε280 = 6990 M^−1 cm^−1 and BAZ2B PHD ε280 = 8480 M^−1 cm^−1. […]

For another test, the target named is T4, BAZ2A PHD E1689K (Homo sapiens, UniProt Q9UIF9, E1689K).
T4 construct: Mutations were introduced into BAZ2A/B PHD fingers by polymerase chain reaction (PCR) amplification of the original construct; made in house
T4 sequence (Q9UIF9 1676-1726 E1689K limits assumed): T2 sequence (Q9UIF9 1676-1726 limits assumed) with E14K
Kind of test: ITC, H3 10-mer into BAZ2A PHD E1689K mutant. The conditions noted are these: ITC 25°C, duplicate, mean ± s.e.m.; SEM. Here is the method: as §2, §3

A further test has as its target T5, BAZ2A PHD E1689Q (Homo sapiens, UniProt Q9UIF9, E1689Q).
T5 construct: Mutations were introduced into BAZ2A/B PHD fingers by polymerase chain reaction (PCR) amplification of the original construct; made in house
T5 sequence (Q9UIF9 1676-1726 E1689Q limits assumed): T2 sequence (Q9UIF9 1676-1726 limits assumed) with E14Q
Kind of test: ITC, H3 10-mer into BAZ2A PHD E1689Q mutant. The following applies: ITC 25°C, triplicate, mean ± s.e.m.; SEM. Here is the method:
as §2, §3

The next test deals with T6, BAZ2B PHD E1944Q (Homo sapiens, UniProt Q9UIF8, E1944Q).
T6 construct: Mutations were introduced into BAZ2A/B PHD fingers by polymerase chain reaction (PCR) amplification of the original construct; made in house
T6 sequence (Q9UIF8 1931-1981 E1944Q limits assumed): T1 sequence (Q9UIF8 1931-1981 limits assumed) with E14Q
Kind of test: ITC, H3 10-mer into BAZ2B PHD E1944Q mutant. The following applies: ITC 25°C, triplicate, mean ± s.e.m.; N fixed to 1 in fit; SEM. Here is the method:
as §2, §3

The target in a further test is T7, BAZ2B PHD E1944K (Homo sapiens, UniProt Q9UIF8, E1944K).
T7 construct: Mutations were introduced into BAZ2A/B PHD fingers by polymerase chain reaction (PCR) amplification of the original construct; made in house
T7 sequence (Q9UIF8 1931-1981 E1944K limits assumed): T1 sequence (Q9UIF8 1931-1981 limits assumed) with E14K
Kind of test: ITC, H3 10-mer into BAZ2B PHD E1944K mutant. The following applies: ITC 25°C. Here is the method: as §2, §3

[1] abbreviates: ITC, 25°C, 20 mM HEPES pH 8, 150 mM NaCl, 0.5 mM TCEP, peptide 1.5–3 mM into protein 80–120 µM, single-site fit, error from fit (Table 2), read-out: KD.
Where [2] appears, read: KD, ITC, 25°C, 20 mM HEPES pH 8, 150 mM NaCl, 0.5 mM TCEP, peptide 1.5–3 mM into protein 80–120 µM, single-site fit, error from fit (Table 2).

On to `C[C@H](N)C(=O)N[C@@H](CCCNC(=N)N)C(=O)N[C@H](C(=O)N[C@@H](C)C(=O)N[C@@H](CCC(N)=O)C(=O)N[C@H](C(=O)N[C@@H](C)C(=O)N[C@@H](CCCNC(=N)N)C(=O)N[C@@H](CCCCN)C(=O)N[C@@H](CO)C(N)=O)[C@@H](C)O)[C@@H](C)O` [ARTAQTARKS], for which the equilibrium dissociation constant (Kd) was determined as 8.5 ± 0.2 µM on BAZ2B PHD (setting [1]) and 42 ± 2 µM on BAZ2A PHD (setting [1]).

On to `C[C@H](N)C(=O)N[C@@H](CCCNC(=N)N)C(=O)N[C@H](C(=O)N[C@@H](CCCCN)C(N)=O)[C@@H](C)O` [ARTK] (H-ARTK-NH2), for which the Kd on BAZ2A PHD (setting [1]) was found to be 100 ± 4 µM.

As to `C[C@H](N)C(=O)N[C@@H](CCCNC(=N)N)C(=O)N[C@H](C(=O)N[C@@H](CCCCN)C(=O)N[C@@H](C)C(=O)N[C@H](C(=O)N[C@@H](C)C(=O)N[C@@H](CCCNC(=N)N)C(=O)N[C@@H](CCCCN)C(=O)N[C@@H](CO)C(N)=O)[C@@H](C)O)[C@@H](C)O` [ARTKATARKS], the values for the Kd on BAZ2B PHD (setting [1]) and at BAZ2A PHD (setting [1]) were 7 ± 0.2 µM and 9.3 ± 0.2 µM, respectively.

As for ARTGGTARKS-NH2 [ARTGGTARKS], the Kd worked out at 166 ± 8 µM at BAZ2B PHD (setting [1]) and 143 ± 7 µM at BAZ2A PHD (setting [1]).

Regarding `C[C@H](N)C(=O)N[C@@H](CCCNC(=N)N)C(=O)N[C@H](C(=O)N[C@@H](CCCCN)C(=O)N[C@@H](CCC(N)=O)C(=O)N[C@H](C(=O)N[C@@H](C)C(=O)N[C@@H](CCCNC(=N)N)C(=O)N[C@@H](CCCCN)C(=O)N[C@@H](CO)C(N)=O)[C@@H](C)O)[C@@H](C)O` [ARTKQTARKS], the dissociation constant Kd on BAZ2A PHD D1688N/E1689Q was found to be 810 ± 50 µM; on BAZ2B PHD (KD, BAZ2B PHD wt, ITC 25°C, triplicate, mean ± s.e.m. (Table 3), SEM), 47 ± 2 µM; at BAZ2B PHD (setting [2]) it was 40 ± 0.5 µM; at BAZ2A PHD E1689K it was 116 ± 6 µM; at BAZ2A PHD E1689Q it was 83 ± 7 µM; at BAZ2B PHD E1944Q, 660 ± 60 µM. The dissociation constant Kd was above 1000 µM at BAZ2B PHD E1944K; 48 ± 2 µM on BAZ2A PHD (KD, BAZ2A PHD wt, ITC 25°C, triplicate, mean ± s.e.m. (Table 3), SEM); 51 ± 2 µM on BAZ2A PHD (setting [2]). In addition, the KD result on BAZ2B PHD E1944K was “completely abrogated binding”.

Turning to AATKQTARKS-NH2 [AATKQTARKS], the Kd at BAZ2B PHD (setting [1]) and on BAZ2A PHD (setting [1]) was above 1000 µM throughout. In addition, the “effect on binding, in words” value at BAZ2B PHD (ITC) and on BAZ2A PHD (ITC) was “abolished binding” in each case.

As to ARAKQTARKS-NH2 [ARAKQTARKS], the dissociation constant Kd at BAZ2B PHD (setting [1]) is above 5000 µM. Moreover, the “effect on binding, in words” value at BAZ2B PHD (ITC) and at BAZ2A PHD (ITC) was “abolished binding” in each case. On BAZ2A PHD (ITC, 25°C, 20 mM HEPES pH 8, 150 mM NaCl, 0.5 mM TCEP, peptide 1.5–3 mM into protein 80–120 µM, single-site fit, error from fit (Table 2)), the KD entry is “No binding”.

As for `C[C@H](N)C(=O)N[C@@H](CCCNC(=N)N)C(=O)N[C@H](C(=O)N[C@@H](C)C(N)=O)[C@@H](C)O` [ARTA] (H-ARTA-NH2), the Kd at BAZ2A PHD (setting [1]) stood at 56 ± 2 µM.

Regarding `C[C@H](N)C(=O)N[C@@H](CCCNC(=N)N)C(=O)N[C@H](C(=O)N[C@@H](CCCCN)C(=O)N[C@@H](CCC(N)=O)C(N)=O)[C@@H](C)O` [ARTKQ], the dissociation constant (Kd) at BAZ2B PHD (setting [1]) is 190 ± 25 µM; at BAZ2A PHD (setting [1]), 210 ± 30 µM.

`C[C@H](N)C(=O)N[C@@H](CCCNC(=N)N)C(=O)N[C@H](C(=O)N[C@@H](CCCCN)C(=O)N[C@@H](CCC(N)=O)C(=O)N[C@@H](C)C(=O)N[C@@H](C)C(=O)N[C@@H](CCCNC(=N)N)C(=O)N[C@@H](CCCCN)C(=O)N[C@@H](CO)C(N)=O)[C@@H](C)O` [ARTKQAARKS]: the Kd on BAZ2B PHD (setting [1]) was 44.6 ± 0.8 µM; on BAZ2A PHD (setting [1]), 55 ± 2 µM.

With ARTAATARKS-NH2 [ARTAATARKS], the dissociation constant Kd is 2.6 ± 0.1 µM at BAZ2B PHD (setting [1]) and 12.1 ± 0.3 µM on BAZ2A PHD (setting [1]).

The record behind these values is article PMC5415848, “Structural basis of molecular recognition of helical histone H3 tail by PHD finger domains” (Biochemical Journal, 2017).
